Measured values taken from patent US6579882B2, “Cell adhesion-inhibiting antiinflammatory compounds” (Abbott Laboratories, priority 1998, dated 2003).

Assays:
Assay type in all cases: cell-based
Conditions in all cases: 1 μM compound, primary human umbilical vein endothelial cells, compound 24 hours, then TNF 5 ng/mL 6 hours; for inhibition at 1 µM: Homo sapiens, Endothelial cell
E-Selectin = assay: CAM ELISA: E-selectin expression on TNF-stimulated HUVECs
Experimental: (§1) Pooled primary human umbilical vein endothelial cells (HtVEC's) (Clonetics) between passages 3 and 7 were plated in 96-well plates (Costar), 100 μL/well, 5×10^4 cells/mL in Clonetics EBM/2% FBS/EGF/Bovine brain extract/gentamicin in the absence of hydrocortisone. The following day, compounds of the invention were added in 10 μL/well medium, and the plates were incubated at 37° C. 24 hours after compound addition, TNF (Gibco/BRL) in 10 μL/well medium was added to a final concentration of 5 ng/mL, and the cells were incubated an additional 6 hours at 37° C. Then media was removed, and the plates were washed once with D-PBS (Gibco/BRL) and treated with primary antibodies (Becton Dickinson, City), 100 μL/well in D-PBS/2% BSA (Sigma)/0.01% azide. Primary antibodies at an initial concentration of 1 mg/mL were used at the following dilutions: anti-ELAM-1, 1:2000, anti-ICAM-1, 1:2000 and anti-VACM-1, 1:3000. Plates were stored overnight at 4° C., washed 3 times with D-PBS, and treated with secondary antibody (Jackson Labs), 100 μL/well 1:8000 dilution HRP-conjugated donkey anti-mouse IgG(H+L) in D-PBS/2%BSA. Plates were incubated a minimum of 1 hour at room temperature, washed 3 times with D-PBS and treated with 100 μL of orhto-phenylene diamine-2 HCl reagent per well. Plates were developed approximately 15 minutes and neutralized with 100 μL/well 1N sulfuric acid. Absorbance was read at 490 nm.

ICAM-1 = assay: CAM ELISA: ICAM-1 expression on TNF-stimulated HUVECs
Experimental: as §1

VCAM-1 = assay: CAM ELISA: VCAM-1 expression on TNF-stimulated HUVECs
Experimental: as §1

Row | Compound | CAM ELISA % Inhibition at 1 μM E-Selectin (E-Selectin) [%] | CAM ELISA % Inhibition at 1 μM ICAM-1 (ICAM-1) [%] | CAM ELISA % Inhibition at 1 μM VCAM-1 (VCAM-1) [%] | inhibition at 1 µM (E-Selectin) [%] | inhibition at 1 µM (ICAM-1) [%] | inhibition at 1 µM (VCAM-1) [%]
1 | Cc1ccc(Sc2c(/C=C/C(N)=O)sc3cnccc23)cc1 [Example 32] | 75 | 63 | 41 |  |  | 
2 | Cc1ccc(Sc2ccnc3cc(C(N)=O)sc23)cc1 [Example 135, 7-[(4-methylphenyl)thio]thieno[3,2-b]pyridine-2-carboxamide] |  |  |  | 29 | 22 | 34
3 | NC(=O)c1cc2c(Oc3ccc(-n4ccnc4)cc3)cncc2s1 [Example 217, 4-[4-(1H-Imidazol-1-yl)phenoxy]thieno[2,3-c]pyridine-2-carboxamide] |  |  |  | 64 | 63 | 42
4 | CNC(=O)C(O)C(O)c1cc2c(Oc3ccc(Br)cc3)cncc2s1 (stereo not drawn) [Example 261, Methyl 3-[4-(4-Bromophenoxy)thieno[2,3-c]pyridin-2-yl]-2,3-dihydroxypropanamide] |  |  |  | 20 | 16 | 0
5 | CN1CCN(C(=O)c2cc3c(Oc4ccc(Cl)cc4)cncc3s2)CC1 [Example 110, 1-[[4-(4-chlorophenoxy)thieno[2,3-c]pyridin-2-yl]carbonyl]-4-methylpiperazine] |  |  |  | 44 | 48 | 39
6 | CNC(=O)c1cc2c(Oc3ccc(C(C)=O)cc3)cncc2s1 [Example 202, 4-(4-Acetylphenoxy)-N-methylthieno[2,3-c]pyridine-2-carboxamide] |  |  |  | 80 | 68 | 49
7 | CNC(=O)c1cc2c(Oc3ccc(OC(F)(F)F)cc3)cncc2s1 [Example 227, N-Methyl-4-[4-(trifluoromethoxy)phenoxy]thieno[2,3-c]pyridine-2-carboxamide] |  |  |  | 61 | 62 | 44
8 | CNC(=O)c1sc2cncc(Oc3ccc(Cl)cc3)c2c1C [Example 303, 4-(4-Chlorophenoxy)-N, 3-dimethylthieno[2,3-c]pyridine-2-carboxamide] |  |  |  | 65 | 66 | 33
9 | CNC(=O)c1cc2c(Oc3ccc(N4CCOCC4)cc3)cncc2s1 [Example 190C, N-Methyl-4-[4-(4-morpholinyl)phenoxy]thieno[2,3-c]pyridine-2-carboxamide] |  |  |  | 70 | 65 | 37
10 | OCC(O)c1cc2c(Oc3ccc(Br)cc3)cncc2s1 (stereo not drawn) [Example 255, 1-[4-(4-Bromophenoxy)thieno[2,3-c]pjridin-2-yl]-1,2-ethanediol] | 67 | 65 | 19 |  |  | 
11 | CNC(=O)c1nc2cncc(Oc3ccc(C)cc3)c2s1 [Example 325] | 76 | 68 | 42 |  |  | 
12 | CNC(=O)c1cc2c(Oc3ccc(Cl)cc3)cnc(Cl)c2s1 [Example 312, 7-Chloro-4-(4-chlorophenoxy)-N-methylthieno[2,3-c]pyridine-2-carboxamide] |  |  |  | 64 | 76 | 42
13 | Nc1nnc(-c2cc3c(Oc4ccc(C(F)(F)F)cc4)cncc3s2)o1 [Example 280, 5-{4-[4-(Trifluoromethyl)phenoxy]thieno[2,3-c]pyridin-2-yl}-1,3,4-oxadiazol-2-amine] |  |  |  | 73 | 77 | 69
14 | CNC(=O)c1cc2c(Oc3ccc(-n4cccn4)cc3)cncc2s1 [Example 218, N-Methyl-4-[4-(1H-pyrazol-1-yl)phenoxy]thieno[2,3-c]pyridine-2-carboxamide] |  |  |  | 66 | 64 | 51
15 | Clc1ccc(Oc2cncc3sc(-c4nnn[nH]4)cc23)cc1 [Example 282A, 4-(4-Chlorophenoxy)-2-(1,2,3,4-tetrazol-5-yl)thieno[2,3-c]pyridine] |  |  |  | 8 | 15 | 5
16 | CNC(=O)c1cc2c(Oc3ccc(-n4cncn4)cc3)cncc2s1 [Example 219, N-Methyl-4-[4-(1H-1,2,4-triazol-1-yl)phenoxy]thieno[2,3-c]pyridine-2-carboxamide] |  |  |  | 62 | 68 | 50

Row | Compound | CAM ELISA % Inhibition at 1 μM E-Selectin (E-Selectin) [%] | CAM ELISA % Inhibition at 1 μM ICAM-1 (ICAM-1) [%] | CAM ELISA % Inhibition at 1 μM VCAM-1 (VCAM-1) [%] | inhibition at 1 µM (E-Selectin) [%] | inhibition at 1 µM (ICAM-1) [%] | inhibition at 1 µM (VCAM-1) [%]
17 | CNC(=O)c1cc2c(Oc3ccc(C4(CO)CC4)cc3)cncc2s1 [Example 225, 4-{4-[1-(Hydroxymethyl)cyclopropyl]phenoxy}-N-methylthieno[2,3-c]pyridine-2-carboxamide] |  |  |  | 75 | 78 | 60
18 | NC(=O)c1cc2c(-c3ccc(C(F)(F)F)cc3)cncc2s1 [Example 95, 4-[4-(trifluoromethyl)phenyl]thieno[2,3-c]pyridine-2-carboxamide] |  |  |  | 85 | 71 | 61
19 | NC(=O)c1cc2c(Oc3cccc(C(F)(F)F)c3)cncc2s1 [Example 184, 4-[3-(Trifluoromethyl)phenoxy]thieno[2,3-c]pyridine-2-carboxamide] |  |  |  | 52 | 56 | 30
20 | COc1ccccc1-c1cc2c(Oc3ccc(Cl)cc3)cncc2s1 [Example 124, 4-(4-chlorophenoxy)-2-(2-methoxyphenyl)thieno[2,3-c]pyridine] |  |  |  | 18 | 29 | 26
21 | 4-(4-Chlorobenzoyl)-N-methylthieno[2,3-c]pyridine-2-carboxamide [Example 237I] | 71 | 77 | 54 |  |  | 
22 | CNC(=O)c1cc2c(Oc3ccc(-c4cccs4)cc3)cncc2s1 [Example 222, N-Methyl-4-[4-(2-thienyl)phenoxy]thieno[2,3-c]pyridine-2-carboxamide] |  |  |  | 40 | 42 | 44
23 | C=C(c1ccccc1)c1cncc2sc(C(N)=O)cc12 [Example 102, 4-(1-phenylethenpl)thieno[2,3-c]pyridine-2-carboxamide] | 78 | 68 | 53 |  |  | 
24 | NC(=O)c1cc2c(OCc3ccccc3)cncc2s1 [Example 236, 4-(Benzyloxy)thieno[2,3-c]pyljdine-2-carboxamide] | 59 | 59 | 33 |  |  | 
25 | NC(=O)CNC(=O)c1cc2c(Oc3ccc(Br)cc3)cncc2s1 [Example 161, N-(2-Amino-2-oxoethyl)-4-(4-bromophenoxy)thieno[2,3-c]pyridine-2-carboxamide] |  |  |  | 51 | 58 | 51
26 | NC(=O)c1cc2c(C=Cc3ccccc3)cncc2s1 [Example 329, 4-(2-Phenylethenyl)thieno[2,3-c]pyridine-2-carboxamide] |  |  |  | 72 | 62 | 64
27 | CNC(=O)c1cc2c(Oc3ccc(C(F)(F)CO)cc3)cncc2s1 [Example 229] | 54 | 55 | 46 |  |  | 
28 | CC(C)(C)OC(=O)Nc1csc(-c2cc3c(Oc4ccc(Cl)cc4)cncc3s2)n1 [Example 294, tert-Butyl 2-[4-(4-Chlorophenoxy)thieno[2,3-c]pyridin-2-yl]-1,3-thiazol-4-ylcarbamate] |  |  |  | 46 | 45 | 24
29 | CNC(=O)c1cc2c(Oc3ccc(-c4ccccc4)cc3)cncc2s1 [Example 223] | 34 | 36 | 36 |  |  | 
30 | CNC(=O)c1cc2c(Oc3ccc(/C=C/C(=O)NCCN4CCOCC4)cc3)cncc2s1 [Example 210] | 64 | 58 | 42 |  |  | 
31 | CCOCCOCCOCC(F)(F)c1ccc(Oc2cncc3sc(C(=O)NC)cc23)cc1 [Example 230, 4-(4-[2-[2-(2-Ethoxyethoxy)ethoxy]-1,1-difluoroethyl]phenoxy)-N-methylthieno[2,3-c]pyridine-2-carboxamide] |  |  |  | 56 | 53 | 45
32 | CNC(=O)c1cc2c(Oc3ccc(-c4noc(C(F)(F)F)n4)cc3)cncc2s1 [Example 220, N-Methyl-4-[4-[5-(trifluoromethyl)-1,2,4-oxadiazol-3-yl]phenoxy]thieno[2,3-c]pyridine-2-carboxamide] |  |  |  | 60 | 51 | 32
